Experimental data from ChEMBL document CHEMBL4414617, “Identification of 2-Imidazopyridine and 2-Aminopyridone Purinones as Potent Pan-Janus Kinase (JAK) Inhibitors for the Inhaled Treatment of Respiratory Diseases” (J Med Chem, 2019).

Key:
[1] = molecular target: Tyrosine-protein kinase JAK1 (Homo sapiens, UniProt P23458)
Description: Inhibition of recombinant human GST-tagged JAK1 (866 to 1154 residues) expressed in baculovirus expression system using PolyGT-Biotin as substrate measured after 3 to 20 hrs by HTRF assay

CHO-K1 = assay: cells; assay type: ADME, cell-based; conditions: Cricetulus griseus, CHO-K1, 24 h
Description: Cytotoxicity against CHOK1 cells assessed as reduction in ATP levels incubated for 24 hrs by ATPlite luminescence assay

[2] = buffer, pH 1.2
Description: Chemical stability of compound at pH 1.2 to 9

[3] = rat, in vivo, inhaled or intranasal, 3 mg/kg, 24 h
Description: Free maximum concentration of drug in Sprague-Dawley rat at 3 mg/kg administered intratracheally as nanosuspension measured up to 24 hrs by LC-MS/MS analysis

[4] = buffer
Description: Solubility of the compound in sterile water with 0.2% Tween80 using nanosuspension formulation

[5] = buffer; remark: listed apart in the source
Description: Solubility of the compound in PBS with 0.2% Tween80 using nanosuspension formulation

in vivo [6] = conditions: Wistar, rat, po, 30 mg/kg
in vivo [7] = conditions: Wistar, rat, po, 30 mg/kg; remark: listed apart in the source
in vivo [8] = conditions: Wistar, rat, inhaled or intranasal
Description: Half life in Wistar rat at 0.41 mg/kg administered intratracheally as nanosuspension measured up to 24 hrs by LC-MS/MS analysis

in vivo [9] = conditions: Wistar, rat, inhaled or intranasal; remark: listed apart in the source
in vivo [10] = conditions: Sprague-Dawley, rat, inhaled or intranasal, 3 mg/kg
in vitro [11] = conditions: PAMPA
Description: Apparent permeability of compound at 20 uM measured after 5 hrs by PAMPA

physchem = conditions: octanol/water
Description: Lipophilicity, log D of compound

in vitro [12] = conditions: rat, plasma
Description: Protein binding in rat plasma by LC-MS/MS-based equilibrium dialysis method

in vitro [13] = conditions: human, plasma
Description: Protein binding in human plasma by LC-MS/MS-based equilibrium dialysis method

in vitro [14] = conditions: rat, microsomes
Description: Drug metabolism in rat liver microsomes at 5 uM incubated for 30 mins by UPLC-MS/MS analysis

in vitro [15] = conditions: human, microsomes
Description: Drug metabolism in human liver microsomes at 5 uM incubated for 30 mins by UPLC-MS/MS analysis

hERG (KCNH2) = hERG (KCNH2) (Homo sapiens, UniProt Q12809); assay: in vitro
hERG (KCNH2), sequence (Q12809 whole entry): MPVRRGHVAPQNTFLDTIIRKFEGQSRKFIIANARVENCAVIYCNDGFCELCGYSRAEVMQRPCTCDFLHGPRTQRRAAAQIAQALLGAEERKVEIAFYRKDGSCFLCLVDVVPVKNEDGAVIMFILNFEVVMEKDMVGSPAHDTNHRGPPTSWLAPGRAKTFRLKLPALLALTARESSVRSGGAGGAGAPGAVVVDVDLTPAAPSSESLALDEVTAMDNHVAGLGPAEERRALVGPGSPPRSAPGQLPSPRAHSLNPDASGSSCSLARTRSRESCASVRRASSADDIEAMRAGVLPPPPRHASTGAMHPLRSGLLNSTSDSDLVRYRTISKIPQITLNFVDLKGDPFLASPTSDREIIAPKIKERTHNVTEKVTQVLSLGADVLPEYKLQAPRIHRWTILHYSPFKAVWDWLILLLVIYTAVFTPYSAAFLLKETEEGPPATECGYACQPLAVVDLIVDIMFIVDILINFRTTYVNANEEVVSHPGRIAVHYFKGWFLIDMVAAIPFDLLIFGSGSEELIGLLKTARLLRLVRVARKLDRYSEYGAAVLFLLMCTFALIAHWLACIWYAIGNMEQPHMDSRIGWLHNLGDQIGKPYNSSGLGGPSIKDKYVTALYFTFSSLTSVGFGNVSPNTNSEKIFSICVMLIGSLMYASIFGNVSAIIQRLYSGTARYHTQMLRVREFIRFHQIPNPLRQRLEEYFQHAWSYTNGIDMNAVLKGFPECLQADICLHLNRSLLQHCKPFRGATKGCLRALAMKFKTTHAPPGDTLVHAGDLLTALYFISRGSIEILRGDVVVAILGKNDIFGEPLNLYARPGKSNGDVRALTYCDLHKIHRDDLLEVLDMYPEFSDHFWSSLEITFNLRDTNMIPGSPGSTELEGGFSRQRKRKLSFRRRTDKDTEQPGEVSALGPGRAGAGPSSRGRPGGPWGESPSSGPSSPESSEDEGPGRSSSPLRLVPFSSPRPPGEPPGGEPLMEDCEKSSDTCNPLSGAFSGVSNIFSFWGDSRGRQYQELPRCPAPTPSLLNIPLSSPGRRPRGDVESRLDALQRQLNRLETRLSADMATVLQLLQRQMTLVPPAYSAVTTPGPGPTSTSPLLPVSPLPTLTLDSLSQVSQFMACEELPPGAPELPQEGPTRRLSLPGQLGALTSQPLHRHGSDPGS
Description: Inhibition of human ERG at 10 uM relative to control

NaV1.5 = NaV1.5 (Homo sapiens, UniProt Q14524); assay: in vitro
Description: Inhibition of NaV1.5 (unknown origin) at 10 uM relative to control

Cav1.2 = Cav1.2 (Homo sapiens, UniProt Q13936); assay: in vitro
Cav1.2, sequence (Q13936 whole entry): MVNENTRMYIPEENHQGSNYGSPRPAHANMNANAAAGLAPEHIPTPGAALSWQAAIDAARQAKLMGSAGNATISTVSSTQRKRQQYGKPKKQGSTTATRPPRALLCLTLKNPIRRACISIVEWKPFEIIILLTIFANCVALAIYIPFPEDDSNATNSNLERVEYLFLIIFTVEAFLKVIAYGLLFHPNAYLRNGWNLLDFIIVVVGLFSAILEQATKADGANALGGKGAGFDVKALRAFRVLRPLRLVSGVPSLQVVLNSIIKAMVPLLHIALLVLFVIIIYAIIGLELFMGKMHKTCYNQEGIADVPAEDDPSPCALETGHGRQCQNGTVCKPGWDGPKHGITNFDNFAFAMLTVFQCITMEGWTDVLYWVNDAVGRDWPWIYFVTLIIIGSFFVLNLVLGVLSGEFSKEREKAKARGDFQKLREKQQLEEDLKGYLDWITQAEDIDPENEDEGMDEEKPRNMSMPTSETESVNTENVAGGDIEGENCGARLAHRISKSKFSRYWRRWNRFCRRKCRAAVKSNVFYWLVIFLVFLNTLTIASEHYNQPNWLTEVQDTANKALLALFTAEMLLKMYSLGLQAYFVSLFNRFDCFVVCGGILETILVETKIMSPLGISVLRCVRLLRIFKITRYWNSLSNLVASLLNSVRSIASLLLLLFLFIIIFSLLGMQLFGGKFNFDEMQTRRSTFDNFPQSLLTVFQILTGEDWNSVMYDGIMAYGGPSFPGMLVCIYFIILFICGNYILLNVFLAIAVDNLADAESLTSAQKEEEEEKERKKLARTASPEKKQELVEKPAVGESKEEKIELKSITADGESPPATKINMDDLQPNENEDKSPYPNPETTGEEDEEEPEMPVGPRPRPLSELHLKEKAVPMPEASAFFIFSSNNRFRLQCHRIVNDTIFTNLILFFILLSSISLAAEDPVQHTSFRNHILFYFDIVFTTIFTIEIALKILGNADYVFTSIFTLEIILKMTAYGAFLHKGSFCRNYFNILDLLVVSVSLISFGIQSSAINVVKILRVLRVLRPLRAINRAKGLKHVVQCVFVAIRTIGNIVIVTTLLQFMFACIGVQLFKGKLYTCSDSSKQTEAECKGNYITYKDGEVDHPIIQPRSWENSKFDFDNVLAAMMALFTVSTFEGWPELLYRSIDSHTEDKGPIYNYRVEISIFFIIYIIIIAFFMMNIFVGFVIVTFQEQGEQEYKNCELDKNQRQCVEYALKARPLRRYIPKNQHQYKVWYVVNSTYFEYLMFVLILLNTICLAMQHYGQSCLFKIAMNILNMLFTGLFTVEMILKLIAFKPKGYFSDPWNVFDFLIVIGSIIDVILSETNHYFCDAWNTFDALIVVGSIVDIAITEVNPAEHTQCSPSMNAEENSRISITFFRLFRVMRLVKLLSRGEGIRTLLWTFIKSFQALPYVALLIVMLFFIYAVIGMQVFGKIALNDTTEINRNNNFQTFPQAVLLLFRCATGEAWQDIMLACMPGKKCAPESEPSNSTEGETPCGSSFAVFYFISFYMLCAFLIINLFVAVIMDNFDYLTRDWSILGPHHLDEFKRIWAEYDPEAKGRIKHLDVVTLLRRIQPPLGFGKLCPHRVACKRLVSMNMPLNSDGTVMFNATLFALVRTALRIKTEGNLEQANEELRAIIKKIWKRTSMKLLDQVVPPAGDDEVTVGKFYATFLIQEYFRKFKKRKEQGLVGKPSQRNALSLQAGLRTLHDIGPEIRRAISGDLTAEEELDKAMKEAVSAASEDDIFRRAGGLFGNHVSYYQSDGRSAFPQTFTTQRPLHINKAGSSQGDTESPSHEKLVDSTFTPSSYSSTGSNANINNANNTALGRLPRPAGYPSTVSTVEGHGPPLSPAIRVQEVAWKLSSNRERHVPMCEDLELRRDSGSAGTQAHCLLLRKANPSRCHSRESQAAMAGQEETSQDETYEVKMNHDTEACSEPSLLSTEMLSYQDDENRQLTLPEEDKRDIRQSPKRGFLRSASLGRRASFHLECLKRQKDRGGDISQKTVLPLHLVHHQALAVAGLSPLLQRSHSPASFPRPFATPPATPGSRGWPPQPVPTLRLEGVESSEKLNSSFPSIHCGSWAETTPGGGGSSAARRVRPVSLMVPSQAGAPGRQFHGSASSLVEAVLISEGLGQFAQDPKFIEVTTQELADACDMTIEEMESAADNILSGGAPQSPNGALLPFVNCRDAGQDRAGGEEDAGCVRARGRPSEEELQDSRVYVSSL
Description: Inhibition of Cav1.2 (unknown origin) at 10 uM relative to control

Tyrosine-protein kinase JAK1, sequence (P23458 whole entry): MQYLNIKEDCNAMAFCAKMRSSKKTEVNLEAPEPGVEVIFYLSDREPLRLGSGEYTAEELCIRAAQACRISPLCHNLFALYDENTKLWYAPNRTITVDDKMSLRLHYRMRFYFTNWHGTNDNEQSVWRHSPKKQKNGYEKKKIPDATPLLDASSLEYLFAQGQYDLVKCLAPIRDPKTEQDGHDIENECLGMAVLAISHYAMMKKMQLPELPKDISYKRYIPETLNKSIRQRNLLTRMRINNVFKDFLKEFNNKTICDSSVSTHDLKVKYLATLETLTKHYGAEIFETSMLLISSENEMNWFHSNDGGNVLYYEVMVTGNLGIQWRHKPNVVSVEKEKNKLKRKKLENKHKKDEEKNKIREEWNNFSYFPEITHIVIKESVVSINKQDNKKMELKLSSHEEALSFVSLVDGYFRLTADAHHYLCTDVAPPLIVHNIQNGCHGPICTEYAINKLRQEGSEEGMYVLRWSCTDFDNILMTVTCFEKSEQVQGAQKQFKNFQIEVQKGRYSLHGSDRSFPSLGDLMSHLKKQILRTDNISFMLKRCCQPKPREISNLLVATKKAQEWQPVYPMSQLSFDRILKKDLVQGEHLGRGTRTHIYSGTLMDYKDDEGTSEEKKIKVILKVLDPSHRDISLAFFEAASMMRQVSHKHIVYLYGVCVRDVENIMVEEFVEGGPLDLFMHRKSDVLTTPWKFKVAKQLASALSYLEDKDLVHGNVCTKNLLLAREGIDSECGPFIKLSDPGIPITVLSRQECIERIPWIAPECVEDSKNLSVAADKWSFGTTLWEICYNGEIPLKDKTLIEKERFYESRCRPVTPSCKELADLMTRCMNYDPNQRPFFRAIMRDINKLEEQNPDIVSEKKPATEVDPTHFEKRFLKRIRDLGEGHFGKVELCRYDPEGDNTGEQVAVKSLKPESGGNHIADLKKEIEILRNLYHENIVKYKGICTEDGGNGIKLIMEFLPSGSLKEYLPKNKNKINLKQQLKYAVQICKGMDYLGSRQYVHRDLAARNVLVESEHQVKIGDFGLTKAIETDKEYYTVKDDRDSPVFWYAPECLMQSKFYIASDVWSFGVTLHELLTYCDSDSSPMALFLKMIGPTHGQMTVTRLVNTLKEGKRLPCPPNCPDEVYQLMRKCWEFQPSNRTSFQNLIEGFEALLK

C[C@]1(O)CC[C@H](n2c(=O)[nH]c3cnc(-c4cnc5ccc(F)cn45)nc32)CC1
IC50 [1]: 79 nM
IC50 (CHO-K1): 16 µM

O=c1[nH]cc(Cl)cc1Nc1ncc2[nH]c(=O)n([C@@H]3CCOc4c(F)cccc43)c2n1
IC50 (CHO-K1): 36 µM

C[C@H](c1ccc(F)cn1)n1c(=O)[nH]c2cnc(Nc3ccc[nH]c3=O)nc21
IC50 (CHO-K1): > 100 µM

N#CC[C@H]1CC[C@H](n2c(=O)[nH]c3cnc(Nc4ccc[nH]c4=O)nc32)CC1
IC50 (CHO-K1): > 100 µM
Stability [2]: Stable
fCmax [3]: 57 ng/mL
solubility [4]: Soluble
solubility [5]: Soluble
AUC(0-inf) at 24 h (in vivo [6]): 32 ng·h/mL
Cmax at 24 h (in vivo [7]): 7 ng/mL
half-life at 24 h (in vivo [8]): 978 min
AUC at 24 h (in vivo [9]): 118 ng·h/mL
AUC at 24 h (in vivo [10]): 406 ng·h/mL
Papp at 5 h, 20 µM (in vitro [11]): 0.61 ×10⁻⁶ cm/s
logD (physchem): 2.1
fraction unbound (in vitro [12]): 0.21
fraction unbound (in vitro [13]): 0.17
metabolised at 0.5 h, 5 µM (in vitro [14]): 17%
metabolised at 0.5 h, 5 µM (in vitro [15]): 21%
inhibition at 10 µM (hERG (KCNH2)): < 15%
inhibition at 10 µM (NaV1.5): < 15%
inhibition at 10 µM (Cav1.2): < 15%

O=c1[nH]c2cnc(-c3cnc4ccc(F)cn34)nc2n1[C@H]1CC[C@H](O)CC1
IC50 (CHO-K1): 100 µM

O=c1[nH]cc(F)cc1Nc1ncc2[nH]c(=O)n([C@@H]3CCOc4c(F)cccc43)c2n1
IC50 (CHO-K1): > 100 µM

C[C@H](c1ncc(F)cn1)n1c(=O)[nH]c2cnc(-c3cnc4ccc(F)cn34)nc21
IC50 [1]: 3.5 nM
IC50 (CHO-K1): 4.3 µM

Cc1c[nH]c(=O)c(Nc2ncc3[nH]c(=O)n([C@@H]4CCOc5c(F)cccc54)c3n2)c1
IC50 (CHO-K1): 51 µM

O=c1[nH]c2cnc(-c3cnc4ccc(F)cn34)nc2n1[C@@H]1CCOc2c(F)cccc21
IC50 [1]: 24 nM
IC50 (CHO-K1): 4 µM

C[C@H](c1ccc(F)cn1)n1c(=O)[nH]c2cnc(Nc3cc(F)c[nH]c3=O)nc21
IC50 (CHO-K1): > 100 µM
